27 compounds from patent US9296745B2, “Diacylglycerol acyltransferase 2 inhibitors” (Pfizer Inc., priority 2012, dated 2016) can be followed below.

Each structure is given as a SMILES string.

For orientation: IC50 means the concentration that inhibits the measured activity by half.

This experiment has as its target Human DGAT2 (hDGAT2) (Homo sapiens (Human), UniProt Q96PD7). The experiment can be described thus: In vitro DGAT2 assay, IC50 determination with hDGAT2 membrane fraction. In kind it is biochemical. The following applies: geometric mean; background for complete inhibition of DGAT2 obtained with 50 μM (1R,2R)-2-({3′-Fluoro-4′-[(6-fluoro-1,3-benzothiazol-2-yl)amino]-1,1′-biphenyl-4-yl}carbonyl)cyclopentanecarboxylic acid; read-out: DGAT2 IC50. The method, then: Recombinant baculovirus for the FLAG-tagged hDGAT2 was generated in SF9 insect cells using Bac-to-Bac baculovirus expression system (Invitrogen) according to the manufacturer's protocol. For the expression of hDGAT2, SF9 cells (20 L) grown in Sf900II media were infected with hDGAT2 baculovirus at a multiplicity of infection of 1 in a Wave Bioreactor System 20/50P wave bag (GE Healthcare). After 40 hours of infection, the cells were then harvested by centrifugation at 5,000×g. The cell pellets were washed by resuspending in phosphate buffered saline (PBS) and collected by centrifugation at 5,000×g. The cell paste was flash frozen in liquid N2 and stored at −80° C. until needed. All operations below were at 4° C. unless otherwise noted. The cells were resuspended in lysis buffer (50 mM Tris-HCl, pH 8.0, 250 mM sucrose) including 1 mM ethylenediaminetetraacetic acid (EDTA) and the complete protease inhibitor cocktail (Roche Diagnostics) at a ratio of 3 ml buffer per 1 g cell paste. The cells were lysed by dounce homogenizer. The cell debris was removed by centrifugation at 1,000×g for 20 min, and the supernatant was centrifuged at 100,000×g for 1 hour. The resulting pellet was rinsed three times by filling ultracentrifuge tubes to the top with ice cold PBS before decanting. The washed pellet was resuspended with gentle stirring for 1 hour in lysis buffer containing 8 mM 3-[(3-cholamidopropyl)dimethylammonio]-1-propanesulfonate (CHAPS) at a ratio of 1 mL buffer per 1 g of original cell paste and centrifuged again at 100,000×g for 1 hour. The resulting supernatant (hDGAT2 membrane fraction) was aliquotted, flash frozen in liquid N2, and stored at −80° C. until use.
To 1 μL of compounds dissolved in 100% DMSO and spotted at the bottom of each well, 5 μL of 0.04% bovine serum albumin (BSA) (fatty acid free, Sigma Aldrich) was added and the mixture was incubated at room temperature for 20 minutes. To this mixture, 10 μL of hDGAT2 membrane fraction (0.01 mg/mL) diluted in 100 mM Hepes-NaOH, pH 7.4, 20 mM MgCl2 containing 200 nM methyl arachidonyl fluorophosphonate (Cayman Chemical; dried from ethyl acetate stock solution under argon gas and dissolved in DMSO as 5 mM stock) was added. […] The reaction mixtures were incubated at room temperature for 40 min and the reactions were stopped by addition of 5 μL of 1% H3PO4. After the addition of 45 μL MicroScint-E (Perkin-Elmer), plates were sealed with Top Seal-A covers (Perkin-Elmer) and phase partitioning of substrates and products was achieved using a HT-91100 microplate orbital shaker (Big Bear Automation, Santa Clara, Calif.). Plates were centrifuged at 2,000×g for 1 min in an Allegra 6R Centrifuge (Beckman Coulter) and then were sealed again with fresh covers before reading in a 1450 Microbeta Wallac Trilux Scintillation Counter (Perkin Elmer). DGAT2 activity was measured by quantifying the generated product [^14C]tridecanoylglycerol in the upper organic phase.
Inhibitors were tested at eleven different concentrations to generate IC50 values for each compound. […] Results are reported as geometric mean IC50 values.

Chain of Human DGAT2 (hDGAT2) (Q96PD7 whole entry): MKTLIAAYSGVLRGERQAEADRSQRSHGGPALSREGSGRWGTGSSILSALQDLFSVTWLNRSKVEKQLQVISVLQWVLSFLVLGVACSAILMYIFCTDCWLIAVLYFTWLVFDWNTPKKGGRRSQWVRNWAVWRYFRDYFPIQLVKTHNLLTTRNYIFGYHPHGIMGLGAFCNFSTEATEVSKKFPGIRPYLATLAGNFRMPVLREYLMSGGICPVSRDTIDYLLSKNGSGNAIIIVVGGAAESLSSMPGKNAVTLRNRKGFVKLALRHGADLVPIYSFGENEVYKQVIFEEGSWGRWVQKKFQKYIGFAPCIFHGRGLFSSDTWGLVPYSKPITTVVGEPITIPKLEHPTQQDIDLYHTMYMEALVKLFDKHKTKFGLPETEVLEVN

Regarding `CC(C)(C)c1nc2ccc(N3CCC[C@@H](C(=O)N4CCCC4)C3)nc2[nH]1` [Example 24, (R)-(1-(2-tert-Butyl-3H-imidazo[4,5-b]pyridin-5-yl)piperidin-3-yl)(pyrrolidin-1-yl)methanone], the concentration for half-maximal inhibition (IC50) is 731 nM. For the compound `O=C([C@@H]1CCCN(c2ccc3nc(-c4ccnc(N5CCOCC5)n4)[nH]c3n2)C1)N1CCCC1` [Example 25, (R)-(1-(2-(2-Morpholinopyrimidin-4-yl)-3H-imidazo[4,5-b]pyridin-5-yl)piperidin-3-yl)(pyrrolidin-1-yl)methanone], the half-inhibitory concentration (IC50) came to 297 nM. In the case of `O=C1COc2ccc(-c3nc4ccc(N5CCC[C@@H](C(=O)N6CCCC6)C5)nc4[nH]3)cc2N1` [Example 27, (R)-6-(5-(3-(Pyrrolidine-1-carbonyl)piperidin-1-yl)-3H-imidazo[4,5-b]pyridin-2-yl)-2H-benzo[b][1,4]oxazin-3(4H)-one], the IC50 amounted to 1390 nM. Regarding `O=C([C@@H]1CCCN(c2ccc3nc(C4CC4)[nH]c3n2)C1)N1CCCC1` [Example 29, (R)-(1-(2-Cyclopropyl-3H-imidazo[4,5-b]pyridin-5-yl)piperidin-3-yl)(pyrrolidin-1-yl)methanone], the IC50 turned out to be 4370 nM. With `CS(=O)(=O)Nc1cccc(-c2nc3ccc(N4CCC[C@@H](C(=O)N5CCCC5)C4)nc3[nH]2)c1` [Example 30, (R)-N-(3-(5-(3-(Pyrrolidine-1-carbonyl)piperidin-1-yl)-3H-imidazo[4,5-b]pyridin-2-yl)phenyl)methanesulfonamide] the figure was 1400 nM. As to `CCc1cc(-c2nc3ccc(N4CCC[C@@H](C(=O)N5CCCC5)C4)nc3[nH]2)no1` [Example 32, (R)-(1-(2-(5-Ethylisoxazol-3-yl)-3H-imidazo[4,5-b]pyridin-5-yl)piperidin-3-yl)(pyrrolidin-1-yl)methanone], the IC50 turned out to be 239 nM.

Turning to `Cc1cncc(-c2nc3ccc(N4CCC[C@@H](C(=O)N5CCCC5)C4)nc3[nH]2)c1` [Example 33, (R)-(1-(2-(5-Methylpyridin-3-yl)-3H-imidazo[4,5-b]pyridin-5-yl)piperidin-3-yl)(pyrrolidin-1-yl)methanone], the IC50 came out at 97 nM. `O=C([C@@H]1CCCN(c2ccc3nc(-c4ccc(OC(F)(F)F)cc4)[nH]c3n2)C1)N1CCCC1` [Example 34, (R)-Pyrrolidin-1-yl(1-(2-(4-(trifluoromethoxy)phenyl)-3H-imidazo[4,5-b]pyridin-5-yl)piperidin-3-yl)methanone]: the half-maximal inhibitory concentration (IC50) came out at 24.8 nM. As for `O=C([C@@H]1CCCN(c2ccc3nc(-c4cccc(F)c4)[nH]c3n2)C1)N1CCCC1` [Example 35, (R)-(1-(2-(3-Fluorophenyl)-3H-imidazo[4,5-b]pyridin-5-yl)piperidin-3-yl)(pyrrolidin-1-yl)methanone], the IC50 was 21.2 nM. For the compound `COc1cccc(-c2nc3ccc(N4CCC[C@@H](C(=O)N5CCCC5)C4)nc3[nH]2)c1` [Example 36, (R)-(1-(2-(3-Methoxyphenyl)-3H-imidazo[4,5-b]pyridin-5-yl)piperidin-3-yl)(pyrrolidin-1-yl)methanone], the IC50 was 20.7 nM. With `COc1cccc(-c2nc3ccc(N4CCC[C@@H](C(=O)N5CCCC5)C4)nc3[nH]2)n1` [Example 37, (R)-(1-(2-(6-Methoxypyridin-2-yl)-3H-imidazo[4,5-b]pyridin-5-yl)piperidin-3-yl)(pyrrolidin-1-yl)methanone] the figure was 12.6 nM; with `O=C([C@@H]1CCCN(c2ccc3nc(-c4cccc(N5CCCC5)n4)[nH]c3n2)C1)N1CCCC1` [Example 38, (R)-Pyrrolidin-1-yl(1-(2-(6-(pyrrolidin-1-yl)pyridin-2-yl)-3H-imidazo[4,5-b]pyridin-5-yl)piperidin-3-yl)methanone], 7.81 nM. With `O=C([C@@H]1CCCN(c2ccc3nc(-c4coc(-c5ccccc5)n4)[nH]c3n2)C1)N1CCCC1` [Example 39, (R)-(1-(2-(2-Phenyloxazol-4-yl)-3H-imidazo[4,5-b]pyridin-5-yl)piperidin-3-yl)(pyrrolidin-1-yl)methanone] the figure was 6.85 nM; with `CCc1csc(-c2nc3ccc(N4CCC[C@@H](C(=O)N5CCCC5)C4)nc3[nH]2)n1` [Example 40, (R)-(1-(2-(4-Ethylthiazol-2-yl)-3H-imidazo[4,5-b]pyridin-5-yl)piperidin-3-yl)(pyrrolidin-1-yl)methanone], 6.47 nM; with `O=C([C@@H]1CCCN(c2ccc3nc(-c4cccc(Cl)c4)[nH]c3n2)C1)N1CCCC1` [Example 41, (R)-(1-(2-(3-Chlorophenyl)-3H-imidazo[4,5-b]pyridin-5-yl)piperidin-3-yl)(pyrrolidin-1-yl)methanone], 4.56 nM. The same measure for `CC(C)(C)c1csc(-c2nc3ccc(N4CCC[C@@H](C(=O)N5CCCC5)C4)nc3[nH]2)n1` [Example 42, (R)-(1-(2-(4-tert-Butylthiazol-2-yl)-3H-imidazo[4,5-b]pyridin-5-yl)piperidin-3-yl)(pyrrolidin-1-yl)methanone]: 3.18 nM. Regarding `O=C([C@@H]1CCCN(c2ccc3nc(-c4cccc(OC(F)F)c4)[nH]c3n2)C1)N1CCCC1` [Example 43, (R)-(1-(2-(3-(Difluoromethoxy)phenyl)-3H-imidazo[4,5-b]pyridin-5-yl)piperidin-3-yl)(pyrrolidin-1-yl)methanone], the 50% inhibitory concentration (IC50) was found to be 7.41 nM. With `Cc1cccc(-c2nc3ccc(N4CCC[C@@H](C(=O)N5CCCC5)C4)nc3[nH]2)n1` [Example 44, (R)-(1-(2-(6-Methylpyridin-2-yl)-3H-imidazo[4,5-b]pyridin-5-yl)piperidin-3-yl)(pyrrolidin-1-yl)methanone] the figure was 36.5 nM. For the compound `N#Cc1cccc(-c2nc3ccc(N4CCC[C@@H](C(=O)N5CCCC5)C4)nc3[nH]2)c1` [Example 47, (R)-3-(5-(3-(Pyrrolidine-1-carbonyl)piperidin-1-yl)-3H-imidazo[4,5-b]pyridin-2-yl)benzonitrile], the concentration for half-maximal inhibition (IC50) amounted to 34.5 nM. On to `O=C([C@@H]1CCCN(c2ccc3nc(COc4ccc(Cl)cc4)[nH]c3n2)C1)N1CCCC1` [Example 48], for which the IC50 amounted to 10.7 nM.

For the compound `O=C([C@@H]1CCCN(c2ccc3nc(C4(c5ccccc5)CC4)[nH]c3n2)C1)N1CCCC1` [Example 51, (R)-(1-(2-(1-Phenylcyclopropyl)-3H-imidazo[4,5-b]pyridin-5-yl)piperidin-3-yl)(pyrrolidin-1-yl)methanone], the IC50 worked out at 69.7 nM. With `O=C([C@@H]1CCCN(c2ccc3nc(C4CCC4)[nH]c3n2)C1)N1CCCC1` [Example 53, (R)-(1-(2-Cyclobutyl-3H-imidazo[4,5-b]pyridin-5-yl)piperidin-3-yl)(pyrrolidin-1-yl)methanone] the figure was 2530 nM. With `Cc1cccc(=O)n1Cc1nc2ccc(N3CCC[C@@H](C(=O)N4CCCC4)C3)nc2[nH]1` [Example 57, (R)-6-Methyl-1-((5-(3-(pyrrolidine-1-carbonyl)piperidin-1-yl)-3H-imidazo[4,5-b]pyridin-2-yl)methyl)pyridin-2(1H)-one] the figure was 702 nM; with `c1ccc(C2CCCN(c3ccc4nc(-c5ccnc(C6CC6)n5)[nH]c4n3)C2)nc1` (stereo not drawn) [Example 59, 2-(2-Cyclopropylpyrimidin-4-yl)-5-(3-(pyridin-2-yl)piperidin-1-yl)-3H-imidazo[4,5-b]pyridine], 858 nM; with `CN(C)C(=O)[C@@H]1CCCN(c2ccc3nc(-c4cccc(OC(F)F)c4)[nH]c3n2)C1` [Example 60, (R)-1-(2-(3-(Difluoromethoxy)phenyl)-3H-imidazo[4,5-b]pyridin-5-yl)-N,N-dimethylpiperidine-3-carboxamide], 892 nM. With `O=C(C1CCCC1)N1CCCC(c2nc3ccc(N4CCC[C@@H](C(=O)N5CCCC5)C4)nc3[nH]2)C1` (stereo partly drawn) [Example 62] the figure was 241 nM. `O=C([C@@H]1CCCN(c2ccc3nc(-c4ccnc(C5CC5)n4)[nH]c3n2)C1)N1CC[C@H](F)C1` [Example 65, ((R)-1-(2-(2-Cyclopropylpyrimidin-4-yl)-3H-imidazo[4,5-b]pyridin-5-yl)piperidin-3-yl)((S)-3-fluoropyrrolidin-1-yl)methanone]: the 50% inhibitory concentration (IC50) was determined as 59.3 nM.
